The record followed here is patent US9586968B2, “Bicycloamine-substituted-N-benzenesulfonamide compounds with selective activity in voltage-gated sodium channels” (Merck Sharp & Dohme Corp., priority 2013, dated 2017).

One experiment has as its target T1, human Nav1.7 (Homo sapiens, UniProt Q15858).
T1 construct: expressed in transfected cells
Put plainly: PatchXpress automated patch-clamp, inactivated state block of Nav1.7. In kind it is cell-based. Conditions: channels stably expressed in HEK 293 cells, 22° C., read-out: potency for the Nav 1.7 sodium ion channel (as measured by PatchXpress). On the procedure: (§1) Compounds were tested on human Nav1.7 and Nav1.5 channels stably expressed in HEK 293 cells. Activity toward Nav 1.7 and Nav 1.5 channels was assessed using the following assay methodology.
(§2) Sodium Current Measurements on the PatchXpress 7000®:
(§3) To measure inactivated state block of sodium channels, test compounds were characterized in an automated PatchXpress® assay (Molecular Devices) using a double-pulse protocol on human Nav1.7 and Nav1.5 channels stably expressed in HEK 293 cells. Cells were held at a potential 20 mV negative to V0.5 inact. An 8000 ms pre-pulse 7 mV positive to V0.5 inact was given followed by a hyperpolarizing 2 ms pulse to −120 mV and a 20 ms test pulse to −20 mV. Protocol was applied to cells in the absence, presence of compound and after washout. The temperature of PatchXpress instruments was maintained at 22° C. The following recording solutions were used. Internal solution (mM): 30 CsCl, 5 HEPES, 10 EGTA, 120 CsF, 5 NaF, 2 MgCl2. External solution (mM): 120 NMDG, 40 NaCl, 1 KCl, 0.5 MgCl2, 5 HEPES, 2.7 CaCl2.
(§4) For all electrophysiology experiments, offline analysis was used to correct for current rundown and to determine percent inhibition as a function of drug concentration. IC50 values were determined by fitting to the Hill equation.
For orientation: In patch-clamp work, channel activity is measured electrically.

The next experiment addresses T2, human Nav1.5 (Homo sapiens, UniProt Q14524).
T2 construct: expressed in transfected cells
Put plainly: PatchXpress automated patch-clamp, inactivated state block of Nav1.5 (selectivity). To be noted: determined by PatchXpress measurement, HEK 293 cells. In kind it is cell-based. How it is done: as §1, §2, §3, §4

T1 sequence (Q15858 whole entry): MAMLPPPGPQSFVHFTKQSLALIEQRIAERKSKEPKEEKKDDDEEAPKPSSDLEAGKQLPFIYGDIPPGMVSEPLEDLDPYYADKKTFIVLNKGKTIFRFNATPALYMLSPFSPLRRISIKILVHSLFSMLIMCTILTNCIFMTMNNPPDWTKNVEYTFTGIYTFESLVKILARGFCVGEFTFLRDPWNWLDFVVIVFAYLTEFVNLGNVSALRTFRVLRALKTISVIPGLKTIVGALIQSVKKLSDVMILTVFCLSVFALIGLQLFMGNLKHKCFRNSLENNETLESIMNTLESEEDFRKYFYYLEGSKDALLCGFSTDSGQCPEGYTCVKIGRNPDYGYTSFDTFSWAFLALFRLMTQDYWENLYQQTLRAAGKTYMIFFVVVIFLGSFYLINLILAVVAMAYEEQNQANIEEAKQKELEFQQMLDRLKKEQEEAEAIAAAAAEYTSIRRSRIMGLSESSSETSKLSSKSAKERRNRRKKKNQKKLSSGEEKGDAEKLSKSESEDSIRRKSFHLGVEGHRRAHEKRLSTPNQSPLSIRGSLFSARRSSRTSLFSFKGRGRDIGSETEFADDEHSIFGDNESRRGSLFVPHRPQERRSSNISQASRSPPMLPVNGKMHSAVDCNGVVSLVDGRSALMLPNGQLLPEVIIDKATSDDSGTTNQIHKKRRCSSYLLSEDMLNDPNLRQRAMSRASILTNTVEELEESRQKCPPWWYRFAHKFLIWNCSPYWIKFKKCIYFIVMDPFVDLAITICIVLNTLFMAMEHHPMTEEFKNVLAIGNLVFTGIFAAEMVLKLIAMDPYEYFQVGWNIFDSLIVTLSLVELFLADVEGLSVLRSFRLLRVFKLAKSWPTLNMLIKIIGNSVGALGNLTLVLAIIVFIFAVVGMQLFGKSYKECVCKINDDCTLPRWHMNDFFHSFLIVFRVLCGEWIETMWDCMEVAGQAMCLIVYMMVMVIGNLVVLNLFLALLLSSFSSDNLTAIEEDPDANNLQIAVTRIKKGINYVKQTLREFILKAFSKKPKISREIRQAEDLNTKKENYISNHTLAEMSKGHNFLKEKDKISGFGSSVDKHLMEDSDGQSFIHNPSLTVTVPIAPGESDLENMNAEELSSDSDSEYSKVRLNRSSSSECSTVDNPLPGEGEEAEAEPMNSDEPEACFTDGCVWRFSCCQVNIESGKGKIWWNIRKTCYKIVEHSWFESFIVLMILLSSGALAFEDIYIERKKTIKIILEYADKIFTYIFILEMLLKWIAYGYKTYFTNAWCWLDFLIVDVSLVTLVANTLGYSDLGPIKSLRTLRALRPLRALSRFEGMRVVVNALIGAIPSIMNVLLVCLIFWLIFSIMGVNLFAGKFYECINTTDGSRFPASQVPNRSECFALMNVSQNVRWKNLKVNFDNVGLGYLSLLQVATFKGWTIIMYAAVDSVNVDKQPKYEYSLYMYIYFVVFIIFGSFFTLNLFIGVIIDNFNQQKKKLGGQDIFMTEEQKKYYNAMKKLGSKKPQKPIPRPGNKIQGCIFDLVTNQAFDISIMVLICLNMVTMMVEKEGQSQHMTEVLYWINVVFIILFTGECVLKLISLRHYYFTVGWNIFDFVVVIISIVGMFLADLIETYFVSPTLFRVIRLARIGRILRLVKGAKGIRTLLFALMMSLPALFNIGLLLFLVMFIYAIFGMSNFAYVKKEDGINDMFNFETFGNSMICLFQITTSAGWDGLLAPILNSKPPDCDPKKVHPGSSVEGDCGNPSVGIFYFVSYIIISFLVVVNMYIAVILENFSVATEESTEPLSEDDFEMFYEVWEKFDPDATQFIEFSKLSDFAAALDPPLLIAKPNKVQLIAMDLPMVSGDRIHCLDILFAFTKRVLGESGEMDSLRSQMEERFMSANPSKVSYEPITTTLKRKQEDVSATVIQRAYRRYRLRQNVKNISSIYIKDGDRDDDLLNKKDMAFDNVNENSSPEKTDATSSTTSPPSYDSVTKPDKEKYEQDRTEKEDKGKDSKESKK
T2 sequence (Q14524 whole entry): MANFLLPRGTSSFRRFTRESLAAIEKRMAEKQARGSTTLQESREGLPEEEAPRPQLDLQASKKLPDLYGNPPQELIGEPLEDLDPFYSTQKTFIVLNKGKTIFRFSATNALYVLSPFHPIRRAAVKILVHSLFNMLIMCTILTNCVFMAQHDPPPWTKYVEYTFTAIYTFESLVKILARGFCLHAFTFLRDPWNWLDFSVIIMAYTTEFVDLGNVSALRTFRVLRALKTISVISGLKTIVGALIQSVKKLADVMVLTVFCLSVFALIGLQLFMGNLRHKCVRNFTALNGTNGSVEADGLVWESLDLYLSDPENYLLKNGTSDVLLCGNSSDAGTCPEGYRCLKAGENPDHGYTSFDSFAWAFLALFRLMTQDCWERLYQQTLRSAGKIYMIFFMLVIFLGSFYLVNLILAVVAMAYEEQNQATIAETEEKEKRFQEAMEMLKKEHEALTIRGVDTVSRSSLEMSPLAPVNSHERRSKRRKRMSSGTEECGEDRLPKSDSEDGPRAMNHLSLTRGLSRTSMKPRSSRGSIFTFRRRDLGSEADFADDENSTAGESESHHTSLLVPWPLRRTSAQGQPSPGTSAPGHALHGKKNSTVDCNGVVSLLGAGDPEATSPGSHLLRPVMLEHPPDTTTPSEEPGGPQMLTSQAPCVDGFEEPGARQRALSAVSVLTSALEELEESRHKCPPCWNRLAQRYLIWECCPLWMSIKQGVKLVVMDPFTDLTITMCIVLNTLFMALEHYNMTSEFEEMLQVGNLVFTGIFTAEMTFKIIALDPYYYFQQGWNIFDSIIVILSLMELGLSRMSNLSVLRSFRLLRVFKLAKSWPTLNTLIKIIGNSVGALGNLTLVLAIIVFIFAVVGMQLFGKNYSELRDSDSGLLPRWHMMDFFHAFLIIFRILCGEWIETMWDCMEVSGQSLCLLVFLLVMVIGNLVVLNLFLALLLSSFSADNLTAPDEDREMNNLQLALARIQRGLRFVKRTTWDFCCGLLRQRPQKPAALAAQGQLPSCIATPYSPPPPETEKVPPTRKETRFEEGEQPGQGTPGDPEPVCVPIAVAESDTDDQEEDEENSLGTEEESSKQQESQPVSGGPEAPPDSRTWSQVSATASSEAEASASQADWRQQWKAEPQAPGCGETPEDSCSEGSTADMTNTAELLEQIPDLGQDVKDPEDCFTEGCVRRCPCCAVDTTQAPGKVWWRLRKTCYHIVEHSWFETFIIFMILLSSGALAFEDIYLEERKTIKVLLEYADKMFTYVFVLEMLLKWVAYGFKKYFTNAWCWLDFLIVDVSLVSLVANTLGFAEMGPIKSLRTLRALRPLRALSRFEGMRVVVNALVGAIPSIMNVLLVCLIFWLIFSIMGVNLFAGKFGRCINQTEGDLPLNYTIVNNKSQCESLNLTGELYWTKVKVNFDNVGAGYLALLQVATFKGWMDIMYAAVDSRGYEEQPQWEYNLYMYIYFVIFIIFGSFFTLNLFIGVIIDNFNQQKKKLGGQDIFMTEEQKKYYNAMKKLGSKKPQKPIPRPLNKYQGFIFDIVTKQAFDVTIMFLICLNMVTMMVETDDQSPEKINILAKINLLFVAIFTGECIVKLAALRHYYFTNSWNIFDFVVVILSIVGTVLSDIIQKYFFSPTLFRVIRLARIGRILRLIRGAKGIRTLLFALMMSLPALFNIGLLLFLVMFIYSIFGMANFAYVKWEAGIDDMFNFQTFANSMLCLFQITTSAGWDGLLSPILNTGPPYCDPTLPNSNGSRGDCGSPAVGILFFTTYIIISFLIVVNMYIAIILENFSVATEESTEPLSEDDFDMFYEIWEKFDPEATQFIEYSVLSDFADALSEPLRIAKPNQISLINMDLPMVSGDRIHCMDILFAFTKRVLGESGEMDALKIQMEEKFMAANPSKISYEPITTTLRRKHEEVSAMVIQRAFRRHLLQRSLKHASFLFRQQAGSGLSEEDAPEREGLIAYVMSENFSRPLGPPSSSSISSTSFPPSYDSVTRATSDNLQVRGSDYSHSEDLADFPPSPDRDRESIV

For `O=S(=O)(Nc1ncc(Cl)s1)c1cc(Cl)c(NCC23CCCN2CC2(C3)OCCO2)cc1F` (single isomer, unassigned) [Ex10-9-A, (S or R)-5-chloro-N-(5-chlorothiazol-2-yl)-2-fluoro-4-(((hexahydro-spiro[[1,3]dioxolane-2,2′-pyrrolizin]-7a′-yl)-methyl)amino)-benzenesulfonamide], at human Nav1.7, the IC50 stood at 25 nM. Also, the “ratio of Nav1.7 potency:Nav 1.5 potency” value at human Nav1.5 worked out at 1210.
In the case of `O=S(=O)(Nc1ncc(Cl)s1)c1cc(Cl)c(NCC23CCCN2CC2(C3)OCCO2)cc1F` (single isomer, unassigned) [Ex10-9-B, (R or S)-5-chloro-N-(5-chloro-thiazol-2-yl)-2-fluoro-4-(((hexahydrospiro[[1,3]-dioxolane-2,2′-pyrrolizin]-7a′-yl)-methyl)amino)-benzenesulfonamide], the IC50 on human Nav1.7 was 108 nM. Moreover, the “ratio of Nav1.7 potency:Nav 1.5 potency” value on human Nav1.5 is given as 277.
Consider `C[C@H]1CC[C@]2(CNc3cc(F)c(S(=O)(=O)Nc4nccs4)cc3Cl)CCCN12` (single isomer, unassigned) [Ex11-8-A], for which, at human Nav1.7, the IC50 was 35 nM. Further, the “ratio of Nav1.7 potency:Nav 1.5 potency” value at human Nav1.5 amounted to 305.
For the compound `C[C@@H]1CC[C@@]2(CNc3cc(F)c(S(=O)(=O)Nc4nccs4)cc3Cl)CCCN12` (single isomer, unassigned) [Ex11-8-B], on human Nav1.7, the IC50 stood at 6 nM. Further, the “ratio of Nav1.7 potency:Nav 1.5 potency” value at human Nav1.5 is on record as 2533.
For the compound `CC1CCC2(CNc3ccc(S(=O)(=O)Nc4nccs4)cc3C(F)(F)F)CCCN12` (single isomer, unassigned) [Ex11-10-A, 4-((((3S,7aS or 3R,7aR)-3-methyl-hexahydro-1H-pyrrolizin-7a-yl)methyl)-amino)-N-(thiazol-2-yl)-3-(trifluoromethyl)-benzenesulfonamide], the IC50 at human Nav1.7 was found to be 22 nM. The “ratio of Nav1.7 potency:Nav 1.5 potency” value on human Nav1.5 came to 1376.
Regarding `CC1CCC2(CNc3ccc(S(=O)(=O)Nc4nccs4)cc3C(F)(F)F)CCCN12` (single isomer, unassigned) [Ex11-10-B, 4-((((3R,7aR or 3S,7aS)-3-methylhexahydro-1H-pyrrolizin-7a-yl)methyl)-amino)-N-(thiazol-2-yl)-3-(trifluoromethyl)-benzenesulfonamide], the IC50 at human Nav1.7 was determined as 40 nM. For the same compound, the “ratio of Nav1.7 potency:Nav 1.5 potency” value on human Nav1.5 was found to be 755.
For `CC1CCC2(CNc3ccc(S(=O)(=O)Nc4ncc(F)s4)cc3Cl)CCCN12` (single isomer, unassigned) [Ex11-12-A, 3-chloro-N-(5-fluorothiazol-2-yl)-4-((((3S,7aS or 3R,7aR)-3-methylhexahydro-1H-pyrrolizin-7a-yl)methyl)amino)benzene-sulfonamide], in that order: 22 nM and 1335.
Regarding `CC1CCC2(CNc3ccc(S(=O)(=O)Nc4ncc(F)s4)cc3Cl)CCCN12` (single isomer, unassigned) [Ex11-12-B, 3-chloro-N-(5-fluorothiazol-2-yl)-4-((((3R,7aR or 3S,7aS)-3-methylhexahydro-1H-pyrrolizin-7a-yl)methyl)-amino)benzene-sulfonamide], at human Nav1.7, the IC50 amounted to 30 nM. In addition, the “ratio of Nav1.7 potency:Nav 1.5 potency” value at human Nav1.5 was 1017.
`O=S(=O)(Nc1nccs1)c1cc(Cl)c(NC[C@@]23CCCN2CC2(CC2)C3)cc1F` (single isomer, unassigned) [Ex13-10-A]: on human Nav1.7, the IC50 was found to be 126 nM. The “ratio of Nav1.7 potency:Nav 1.5 potency” value on human Nav1.5 is on record as 113.
For `O=S(=O)(Nc1nccs1)c1cc(Cl)c(NC[C@]23CCCN2CC2(CC2)C3)cc1F` (single isomer, unassigned) [Ex13-10-B], in that order: 16 nM and 406.
Turning to `O=S(=O)(Nc1ncc(F)s1)c1ccc(NCC23CCCN2CC2(CC2)C3)c(C(F)(F)F)c1` (single isomer, unassigned) [Ex13-12-A, (S or R)-N-(5-fluorothiazol-2-yl)-4-(((hexahydrospiro-[cyclopropane-1,2′-pyrrolizin]-7a′-yl)methyl)-amino)-3-(trifluoromethyl)-benzenesulfonamide], the IC50 at human Nav1.7 came out at 22 nM. The “ratio of Nav1.7 potency:Nav 1.5 potency” value at human Nav1.5 is on record as 756.
For `O=S(=O)(Nc1ncc(F)s1)c1ccc(NCC23CCCN2CC2(CC2)C3)c(C(F)(F)F)c1` (single isomer, unassigned) [Ex13-12-B, (R or S)-N-(5-fluorothiazol-2-yl)-4-(((hexahydrospiro-[cyclopropane-1,2′-pyrrolizin]-7a′-yl)methyl)-amino)-3-(trifluoromethyl)-benzenesulfonamide], in that order: 7 nM and 3240.
Regarding `O=S(=O)(Nc1nccs1)c1cc(Cl)c(NC[C@@]23CCCN2[C@H](CO)CC3)cc1F` (single isomer, unassigned) [Ex14-11-A], the IC50 at human Nav1.7 amounted to 28 nM. For the same compound, the “ratio of Nav1.7 potency:Nav 1.5 potency” value on human Nav1.5 stood at 1062.
Consider `O=S(=O)(Nc1nccs1)c1cc(Cl)c(NC[C@]23CCCN2[C@@H](CO)CC3)cc1F` (single isomer, unassigned) [Ex14-11-B], for which, on human Nav1.7, the IC50 was 10 nM. Also, the “ratio of Nav1.7 potency:Nav 1.5 potency” value on human Nav1.5 was 3045.
With `COc1ccc(C[C@H]2CN3CCC[C@@]3(CNc3cc(F)c(S(=O)(=O)Nc4nccs4)cc3Cl)C2)cc1` (single isomer, unassigned) [Ex15-10-A], on human Nav1.7, the IC50 was 2 nM. The “ratio of Nav1.7 potency:Nav 1.5 potency” value at human Nav1.5 is listed as 918.
On to `COc1ccc(C[C@@H]2CN3CCC[C@]3(CNc3cc(F)c(S(=O)(=O)Nc4nccs4)cc3Cl)C2)cc1` (single isomer, unassigned) [Ex15-10-B], for which, on human Nav1.7, the IC50 was 30 nM. The “ratio of Nav1.7 potency:Nav 1.5 potency” value on human Nav1.5 came to 308.
The like results for `COc1ccc(CC2CN3CCCC3(CNc3cc(F)c(S(=O)(=O)Nc4ncc(F)s4)cc3Cl)C2)cc1` (single isomer, unassigned) [Ex15-12-A, 5-chloro-2-fluoro-N-(5-fluorothiazol-2-yl)-4-((((2R,7aS or 2S,7aR)-2-(4-methoxybenzyl)hexahydro-1H-pyrrolizin-7a-yl)-methyl)amino)benzene-sulfonamide] were, in that order, 8 nM and 282.
With `COc1ccc(CC2CN3CCCC3(CNc3cc(F)c(S(=O)(=O)Nc4ncc(F)s4)cc3Cl)C2)cc1` (single isomer, unassigned) [Ex15-12-B, 5-chloro-2-fluoro-N-(5-fluorothiazol-2-yl)-4-((((2S,7aR or 2R,7aS)-2-(4-methoxybenzyl)hexahydro-1H-pyrrolizin-7a-yl)methyl)amino)benzene-sulfonamide], the IC50 at human Nav1.7 was determined as 66 nM. For the same compound, the “ratio of Nav1.7 potency:Nav 1.5 potency” value at human Nav1.5 is listed as 99.
`COc1ccc([C@@H]2CN3CCC[C@@]3(CNc3cc(F)c(S(=O)(=O)Nc4nccs4)cc3Cl)C2)cc1` (single isomer, unassigned) [Ex16-12-A]: the IC50 at human Nav1.7 worked out at 51 nM. In addition, the “ratio of Nav1.7 potency:Nav 1.5 potency” value on human Nav1.5 is 348.
For the compound `COc1ccc([C@H]2CN3CCC[C@]3(CNc3cc(F)c(S(=O)(=O)Nc4nccs4)cc3Cl)C2)cc1` (single isomer, unassigned) [Ex16-12-B], the IC50 on human Nav1.7 came out at 21 nM. At human Nav1.5, the “ratio of Nav1.7 potency:Nav 1.5 potency” value is listed as 708.
Turning to `O=S(=O)(Nc1nccs1)c1cc(Cl)c(NCC23CCCCN2CCC3)cc1F` (single isomer, unassigned) [Ex17-7-A, (S or R) 5-chloro-2-fluoro-4-(((octahydroindolizin-8a-yl)methyl)amino)-N-(thiazol-2-yl)benzenesulfonamide], the IC50 on human Nav1.7 was found to be 113 nM. Also, the “ratio of Nav1.7 potency:Nav 1.5 potency” value on human Nav1.5 is 450.
